In patent US12527819B2, “Method of preventing or treating viral infections” (Vector Vitale IP LLC, priority 2020, dated 2026):
Values after ≈ are worked out from the molar mass of the structure shown. Where two headings read alike, the source gives them in different places.

Legend:
MDBK cells = assay: Mitotic regime of MDBK cells (cytological analysis); type: cell-based, bovine; conditions: dilution 1:1000; for Abnormal mitoses MDBK / Mitotic activity MDBK: relative to tissue control
Description: Cytological analysis was performed after fixing the cells grown on cover-glasses in Shabadash's fluid (9 parts of copper nitrate in ethyl alcohol+1 part of formalin) for 30 minutes. The samples for the cytological analysis were stained using hematoxylin and eosin stain according to the generally accepted procedure.
The mitotic index was calculated by analyzing 3000-10000 observed cells and was expressed in ppm (‰), which was the number of mitoses per 1000 cells. At the same time, the presence of pathological forms of mitosis was determined. A classification developed by V. N. Blyumkin was used for the analysis of pathological mitoses.
The examination of cytological preparations was carried out with lenses ×40 and ×100, eyepiece ×10 in a Standard 20, Zeiss microscope.
The experiment was conducted on the culture of MDBK cells that were treated with various options of the drugs. After 24 hours of contact the cells were fixed and cytological preparations were made using a standard technique.
The culture of MDBK cells was selected for the study. The cells were treated with various drug options at concentrations nontoxic for cells. After 24 hours of contact, the cells were fixed and cytological preparations were prepared according to a conventional technique.

MDCK cells = system: MDCK cells; parameters: unit not given beside the values
herpes simplex virus = assay: Light water at various doses in mice infected intracerebrally with herpes virus; type: in vivo; conditions: 14 day; for Number of survived mice: 8 mice
Description: Thus 50, 100 and 200 μl per mouse were administered to the infected animals.
Groups consisting of 8 mice each were included in the experiment. […] The first administration of drugs was 24 hours later. After infection, there were 4 injections in total given every other day. Uninfected mice who received intracerebral injections of 30 μl of normal saline solution and the mice infected with HSV served as a control.

herpes virus = assay: Herpes virus meningoencephalitis model in mice, treatment regimen; conditions: dose 100 μg
Description: The anti-herpes activity of zinc preparations was studied in the model of herpes virus meningoencephalitis in BALB/c mice (18-20 g in weight) with their intracerebral administration at a dose of 0.03 ml. In all the experimental groups, the drug was administered intraperitoneally at a dose of 0.1 ml. […] 4B—Zn-64 citrate in deuterium-depleted water—3 mg/ml • 2. 4B-2—Zn citrate in deuterium-depleted water—3 mg/ml • 3. 8B—Zn-64 glutamate in deuterium-depleted water—3 mg/ml • 4. 8B-2—Zn glutamate in deuterium-depleted water—3 mg/ml • 5. 9B—Zn-64 glycine-methionine in deuterium-depleted water—1 mg/ml • 6. 9B-2—Zn glycine-methionine in deuterium-depleted water—1 mg/ml
The drug activity was evaluated by comparing the lethality in the experimental and control groups. The following factors were taken into account: • percentage of animals that died • multiplicity of protection (MP)—multiplicity of decrease in the number of dead mice in the experimental group compared to the control group • efficacy index (EI) of the drugs was determined using the following formula:

in vitro = conditions: dog
[1] = system: influenza virus A/FM/1/47 (H1N1); type: in vivo, BALB/c mice; conditions: reference drug, 1000 μg/kg

Description for Raji cells: A colorimetric assay using MTT 3-(4,5-dimethylthiazol-2-yl)-2,5-diphenyltetrazolium bromide (Sigma, USA) is based on the features of functioning of the dehydrogenase system of mitochondria of living cells which, under normal conditions, reprocess the artificial substrate MTT into a formazan that can be accounted spectrophotometrically.
The MTT substrate (Sigma, USA) was dissolved in sterile phosphate buffered saline (pH 7.2) at room temperature to a concentration of 5 mg/ml. The filtered MTT solution in a volume of 20 μl was added to the wells of a 96-well plate and incubated with the cells for 2 to 4 hours at 37° C. After incubation, the medium was removed, and 150 μl of 96° ethanol was added to the cells to dissolve the formazan crystals. The optical density of the solutions was determined spectrophotometrically using a Multican FC reader (“Thermo Scientific” (USA)) at a wavelength of 540 nm.
Cytotoxicity of the preparations under study was assessed using the MTT (3-(4,5-dimethylthiazol-2-yl)-2-5-diphenyltetrozolium bromide) assay, one of the commonly used colorimetric assay (Sigma USA). This assay determined cell viability through determination of mitochondrial function of cells by measuring activity of mitochondrial enzymes such as succinate dehydrogenase. In this assay, MTT is reduced to a purple formazan by NADH, which can be quantified spectrophotometrically. […] The purple color was measured at an excitation wavelength of 540 nm using a Thermo Scientific (USA) reader.

Molecule: N[C@@H](CCC(=O)O)C(=O)O [10a, glutamic acid]
- Abnormal mitoses in % (MDBK cells; MDBK, 24 h): 22.2%
- Abnormal mitoses MDBK (MDBK cells): 1.0
- Mitotic activity MDBK (MDBK cells): 0.77
- CC50 as dilution (MDCK cells): 1:160

Molecule: Deuterium-depleted water
- MP (%) (herpes simplex virus; 50 μl/mouse): 38%
- Number of survived mice (herpes simplex virus; 50 μl/mouse, 4 injections): 3
- MP (%) (herpes simplex virus; 100 μl/mouse): 50%
- Number of survived mice (herpes simplex virus; 100 μl/mouse, 4 injections): 4
- MP (%) (herpes simplex virus; 200 μl/mouse): 75%
- Number of survived mice (herpes simplex virus; 200 μl/mouse, 4 injections): 6
- EI (efficacy index) (herpes virus): 50.0
- Inhibition of infectious titer in cerebral tissue in lg TCD50 (herpes virus): 2.0 lg TCD50
- MP (multiplicity of protection) (herpes virus): 2.0
- Number of mice that died, % (herpes virus; 10 mice): 50.0%
- Number of mice that died, total (herpes virus; 10 mice): 5

Molecule: O=C(O)CC(O)(CC(=O)O)C(=O)O [No 8a, citric acid]
- CC50 as dilution (MDCK cells): 1/160
- CC50 at 5 days (in vitro): 14 µg/mL (≈ 72.9 µM)

Molecule: Cc1ccc(S(=O)(=O)Nc2ccccc2NC(=O)c2ccccc2)cc1 [10-3, n-n-toluenesulfonyl-n-benzoyl-o-phenylenediamine]
- Abnormal mitoses in % (MDBK cells; MDBK, 24 h): 25.0%
- Mitotic activity in % (MDBK cells; MDBK, 24 h): 16.0%
- Abnormal mitoses MDBK (MDBK cells): 1.12
- Mitotic activity MDBK (MDBK cells): 0.88
- viability of Raji cells (MTT reading) (Raji cells; 0.9 μg/ml): 1.287
- viability of Raji cells (MTT reading) (Raji cells; 9 μg/ml): 1.235
- viability of Raji cells (MTT reading) (Raji cells; 18 μg/ml): 0.1791
- viability of Raji cells (MTT reading) (Raji cells; 90 μg/ml): 0.152
- CC50 (Raji cells; Raji cells, MTT): 33.46 µg/mL (≈ 91.3 µM)

Molecule: CCOC(=O)C1=C[C@@H](OC(CC)CC)[C@H](NC(C)=O)[C@@H](N)C1 [Tamiflu]
- EI (efficacy index) [1]: 70
- Inhibition of infectious titer in cerebral tissue in lg TCD50 [1]: 2.5 lg TCD50
- Number of mice that died, % ([1]; 10 mice): 30.0%
- Number of mice that died, total ([1]; 10 mice): 3

Molecule: Nc1nc2c(ncn2COCCO)c(=O)[nH]1 [Aciclovir, Acyclovir, reference compound]
- MP (%) (herpes simplex virus; reference, dose not given): 25%
- Number of survived mice (herpes simplex virus; reference, dose not given): 2

Molecule: N[C@@H](CC(=O)O)C(=O)O [9a, aspartic acid]
- CC50 as dilution (MDCK cells): 1/80
- CC50 at 5 days (in vitro): 42 µg/mL (≈ 316 µM)
